Laboratory results reported in patent publication US9920295B2, “Bioreactor for isolation of rare cells and methods of use” (The Trustees of the University of Pennsylvania, priority 2012, dated 2018).
Where two headings read alike, the source gives them in different places.

Tests used:
Assay type in all cases: cell-based, human
[1] = system: CD34+ cells (CFU-E, BFU-E); assay: Erythroid progenitor number in the presence of Epo (flow cytometry); conditions: SCF, IL-3 and Epo, 3 days
Description: FIG. 20, comprising FIG. 20A through FIG. 20E, illustrates the functional effects of myosin-II inhibition on HSC differentiation. FIG. 20A (Left) illustrates the enrichment of polyploid MKs by Bleb from CD34^+ cells cultured in SCF and Tpo (n=4 donors). Y-axis represents the ratios between polyploid MKs and 2n+4n MKs. […] Hill coefficient=7.0. FIG. 20A (Middle) illustrates the enrichment of BFU-E relative to CFU-GM in the absence of Epo. CD34^+-derived cells were cultured with SCF and Tpo under Bleb and progenitors were enumerated by colony forming assays. […] FIG. 20A (Right) illustrates the sensitivity of erythroid progenitors against Bleb in the presence of Epo. CD34^+ cells were cultured with SCF, IL-3 and Epo for 4 days before treating with Bleb for 3 days, followed by flow cytometry with Hoechst 33342 to stain for nuclei. BFU-E=CD34^+IL-3R^+CD36^-; CFU-E=CD34^-IL-3R^-CD36^+. Absolute values were normalized to […] initial cell input and fit to dose-response curves: […] FIG. 20B is a graph depicting the limiting dilution analyses showing functional LT-HSCs after myosin inhibition. Human-CD34^+-derived cells were treated with Bleb for 3 days and injected intra-tibally into irradiated NSG mice. […] FIG. 20D illustrates the kinetics of human-CD41^+ plts in circulation were measured after transplantation of human CD34^+-derived cells and normalized by the initial number of CD41^+ cells transplanted. Areas under curves show significant differences between drug-treated and untreated. […] FIG. 20E is a graph showing that human-CD41^+ plts derived in vivo after transplantation into NSG mice show the normal plt size compared to human blood plts. […] Freshly purified bone marrow-derived human CD34^+ cells were obtained from either the Penn Xenograft Core Facility or AllCells (Emeryville, Calif.). Cells from at least 20 different donors were used in this study. Purity of the samples (>98%) was confirmed by flow cytometry with monoclonal antibody against human CD34. All experiments were performed in HSC expansion media ([…], Sigma) supplemented with 1× antibiotics, 20% BIT 9500 Serum Substitute (StemCell Technologies), 2 mM […] (Gibco) and the following human recombinant cytokines: SCF (100 ng/ml) and Tpo (100 ng/ml). In some occasions, the media was also supplemented by G-CSF (100 ng/ml), epidermal growth factor (EGF, 100 ng/ml), transforming growth factor beta 1 (TGF-beta1, 100 ng/ml), erythropoietin (EPO, 1 U/ml) and interleukin-3 (IL-3, 10 ng/ml). All cytokines were purchased from R&D Systems. After cells were cultured for 4 days, they were treated with different doses of cellular contractility inhibitors, including (±)-Blebbistatin (Bleb) (EMD Biosciences) and/or CH-223191 (Sigma) for indicated durations of up to 3 days.

CD34+-derived cells = assay: DNA microarray transcriptional profiling
Description: Total RNA was extracted from cells using trizol and isolated by RNeasy (Qiagen) according to manufacturer's protocol. Total RNA was amplified and converted to cDNA using WT-Ovation Pico kit (NuGen) and converted to ST-cDNA, fragmented and biotinfunctionalized using WT-Ovation Exon Mudule (NuGen). Hybridization cocktails were prepared at 45.4, 15.1 and 7.6 ng/μl ST-cDNA and mixed with Eukaryotic Hybridization Controls (GeneChip) at proportional concentrations. Each sample was interrogated by sequential hybridization, rinse and scan cycles on a single Human Gene 1.0 ST DNA microarray (Affymetrix), from low to high concentration, and followed by two rinse-scan cycles in which no sample was added. In each experiment the scanned intensities that were obtained from all samples, five scans per array, were mutually RMA-summarized to transcription clusters gene levels. Log-base-2 fold changes were calculated for each scan separately relative to the mean Bleb-treated and non-treated CD34^+ and CD34^− intensities, gene by gene, and the average and standard deviation values (SD) were calculated across scans. Heat maps of selected genes summarize data from technical and biological replica. Average gene-expression fold changes±STD of HSC, MPP and CPP samples are shown in white. Log-base-2 fold changes of Bleb-treated and non-treated CD34^+ and CD34^− were averaged from two biologically independent experiments and are shown±SD. The particular fold-changes are color coded on a logarithmic scale that is defined per each heat map. Color-coded gene symbols represent the absolute gene expression levels of the biologically-replicated averages of CD34^+ non-treated intensities. Gene expression levels are coded <=5 (green) to >=10 (red) on a log-base-2 scale. Samples and genes were clustered by Pearson Correlation (MeV). Dendograms represent the correlative proximity of log-base-2 gene expression fold changes. Mean gene expression levels were calculated by averaging across five array scans. Log-base-2 gene expression fold changes were calculated relative to the mean Bleb-treated and non-treated CD34^+ and CD34^− intensities, gene by gene.

BM CD34+-derived cells = assay: Micropipette aspiration of CD34+-derived cells
Description: Cells from BMCD34^+, cultured in SCF and Tpo between 3 and 8 days, were treated with 20 μM blebbistatin for 30 min to 1 h, followed by micropipette analysis. Capillary tubes of 1.0-mm inner diameter (World Precision Instruments) were pulled into micropipettes using a Flaming-Brown Micropipette Puller (Sutter Instrument) and cut further using a deFonbrune-type microforge (Vibratome). The average micropipette diameter was around 3 μm. Micropipettes were attached to a dual-stage water manometer with reservoirs of adjustable height. Suction was applied by a syringe, and the corresponding pressure was measured by pressure transducer (Validyne), calibrated by a mercury U-tube manometer. Pressures for different experiments ranged from 0.5 to 20 kPa. In some cases, cells were labeled with a very low dose (10 nM) of fluorescent BODIPY-Taxol (Invitrogen) for 1 h at 37° C. to visualize the initial stage of microtubule polymerization during micropipette aspiration.

- IC50 ([1]; read-out: BFU-E 2n IC50): 10.9 µM
- IC50 ([1]; read-out: BFU-E 4n IC50): 13 µM
- IC50 ([1]; read-out: CFU-E 2n IC50): 8.7 µM
- IC50 ([1]; read-out: CFU-E 4n IC50): 12.9 µM
Structure (SMILES): Cc1ccc2c(c1)C(=O)C1(O)CCN(c3ccccc3)C1=N2 (racemic) [blebbistatin, (±)-blebbistatin]
- NMM-IIA mRNA lower in drug-treated CD34+ cells (CD34+-derived cells): ~30%
- reduction of cyclin D1 and D3 (CCND1 and 3) expression (CD34+-derived cells): 2 fold
- SCF receptor (KIT) expression vs untreated CD34+ cells (CD34+-derived cells; treated CD34+ cells): 1.8 fold
- upregulation of CD133 (PROM1) and CD34 above pooled average (CD34+-derived cells; treated CD34+ cells in culture): more than 2 fold
- median fragmentation threshold (effective membrane tension) (BM CD34+-derived cells; 20 μM): ~1 mN/m
- compliance, median slope of aspiration length vs tension (BM CD34+-derived cells; 20 μM, unfragmented cells): 3.79±0.84 (mN/m)^−1
- increase in compliance (BM CD34+-derived cells; after 30 min): approximately four
- treated cells that fragment (BM CD34+-derived cells; after 30 min): 40%
